From the NIST ThermoML archive (doi:10.1016/j.fluid.2013.05.019)
Numbers after ± are expanded uncertainties. One block for each compound: values may come before it.

Columns and labels:
[1] = Boiling temperature at pressure P; details: 101 kPa; Liquid; Ebulliometric method (Recirculating still)
[2] = Liquid, Manometric method

vapor or sublimation pressure ([2]; 370.27 K): 97.43 ± 0.32 kPa | vapor or sublimation pressure ([2]; 370.74 K): 98.52 ± 0.33 kPa | vapor or sublimation pressure ([2]; 370.93 K): 99.39 ± 0.34 kPa | vapor or sublimation pressure ([2]; 371.13 K): 99.78 ± 0.33 kPa | vapor or sublimation pressure ([2]; 371.52 K): 101.07 ± 0.34 kPa | vapor or sublimation pressure ([2]; 372.25 K): 103.43 ± 0.32 kPa | vapor or sublimation pressure ([2]; 372.36 K): 103.56 ± 0.35 kPa | vapor or sublimation pressure ([2]; 372.56 K): 104.41 ± 0.34 kPa | vapor or sublimation pressure ([2]; 372.76 K): 104.67 ± 0.35 kPa | vapor or sublimation pressure ([2]; 372.97 K): 105.83 ± 0.36 kPa | vapor or sublimation pressure ([2]; 373.17 K): 106.29 ± 0.34 kPa | vapor or sublimation pressure ([2]; 373.48 K): 107.02 ± 0.34 kPa | Boiling temperature at pressure P [1]: 98.49 ± 0.04 °C
Compound: CCCCCCC [heptane]

Boiling temperature at pressure P [1]: 84.27 ± 0.04 °C
Compound: c1ccsc1 [thiophene]

Continued, compound first:

Compound: C=C(C)C(C)C [2,3-dimethyl-1-butene]
Boiling temperature at pressure P [1]: 55.73 ± 0.04 °C

Compound: CC(C)=C(C)C [2,3-dimethyl-2-butene]
Boiling temperature at pressure P [1]: 73.00 ± 0.04 °C

Compound: Cc1ccsc1 [3-methylthiophene]
Boiling temperature at pressure P [1]: 115.20 ± 0.04 °C
